The values below come from patent US12295936B2, “Immunomodulating urea azalides” (Zoetis Services LLC, priority 2020, dated 2025).

Like-named read-outs stand apart in the source and are kept apart here.

Assay [1] concerns TNF-α. Kind of assay: LPS-stimulated whole bovine blood assay, MSD cytokine detection. To be noted: LPS-stimulated bovine whole blood, read-out: TNF-α (IC50 μM). In kind it is cell-based. The protocol:
Therefore, a fresh whole bovine blood assay was developed with LPS as a stimulant (TLR-4 agonist) and with IL-1β and TNF-α as the read-out. Compounds of the invention were evaluated against a positive control for their ability to inhibit LPS-induced IL-1β and TNF-α as an overall evaluation of relative potency and modulation of target pathways (Table 6).
In the bovine whole blood in vitro screening assay the inhibition of TNFα as induced by stimulation by lipopolysaccharide (LPS) and as measured by half the maximal inhibitory concentration (IC50) is recognized as the primary biomarker of immunomodulation potency upon pretreatment with the compounds of the invention. IL-1β is a mediator of the inflammation response and is involved in a number of cellular activities including proliferation, differentiation and apoptosis. IL-1β is also released upon cellular stress or cytotoxicity or upon TLR stimulation. In the bovine whole blood assay the stimulation of IL-1β release upon increasing concentration of test compound is seen as a potential cellular toxicity signal as induced by the test compound. In order to estimate a therapeutic index from the in vitro assay a differential between the TNFα IC50 (immunomodulation potency) versus the perceived cellular toxicity concentration (IL-1β release or overstimulation) was utilized.

Assay [2] deals with IL-1β. Described as above. In kind it is cell-based. As to conditions: overstimulation of IL-1β, LPS-stimulated bovine whole blood. How it is done: The effect of multiple cytokines was not easily quantified using single cell types. Therefore, a fresh whole bovine blood assay was developed with LPS as a stimulant (TLR-4 agonist) and with IL-1β and TNF-α as the read-out. Compounds of the invention were evaluated against a positive control for their ability to inhibit LPS-induced IL-1β and TNF-α as an overall evaluation of relative potency and modulation of target pathways (Table 6).
In order to correlate RNA sequencing data to cytokine changes the whole blood assay was utilized. […] The enhancement result represents an overall stimulation of cytokine levels due to cellular stress or potential toxicity with increasing concentrations of the compound, representing a typical bell shape response curve for immunomodulatory activity.
In the bovine whole blood in vitro screening assay the inhibition of TNFα as induced by stimulation by lipopolysaccharide (LPS) and as measured by half the maximal inhibitory concentration (IC50) is recognized as the primary biomarker of immunomodulation potency upon pretreatment with the compounds of the invention.

For assay [3], the system named is BRD pathogens, M. haemolytica and P. multocida. In words: MIC screening panel of BRD pathogens (antibacterial / non-antibacterial).
The mark [4] stands for this setting: read-out: antibacterial / non-antibacterial (MIC for the BRD pathogens).

Broadly, the IC50 is the concentration needed to halve the response being measured. With `CC[C@H]1OC(=O)[C@H](C)[C@@H](O[C@H]2C[C@@](C)(OC)[C@](O)(CN3Cc4nccnc4C3)[C@H](C)O2)[C@H](C)[C@@H](O[C@@H]2O[C@H](C)C[C@H](N(C)C(=O)N(C)c3ccccc3)[C@H]2O)[C@](C)(O)C[C@@H](C)CN[C@H](C)[C@@H](O)[C@]1(C)O` [Example J-16, 1-((2S,3R,4S,6R)-2-(((2R,3S,4R,5R,8R,10R,11R,12S,13S,14R)-13-(((2R,4R,5S,6S)-5-((5,7-dihydro-6H-pyrrolo[3,4-b]pyrazin-6-yl)methyl)-5-hydroxy-4-methoxy-4,6-dimethyltetrahydro-2H-pyran-2-yl)oxy)-2-ethyl-3,4,10-trihydroxy-3,5,8,10,12,14-hexamethyl-15-oxo-1-oxa-6-azacyclopentadecan-11-yl)oxy)-3-hydroxy-6-methyltetrahydro-2H-pyran-4-yl)-1,3-dimethyl-3-phenylurea], in assay [1] (Bos taurus), the IC50 came to 60 µM. Further, the “IL-1β OS of LPS” value in assay [2] came to 40 µM. Also, the MIC in assay [3] (setting [4]) was more than 64 µg/mL.
As for `CCCNC[C@]1(O)[C@H](C)O[C@@H](O[C@H]2[C@H](C)[C@@H](O[C@@H]3O[C@H](C)C[C@H](N(C)C(=O)N(C)c4cnccn4)[C@H]3O)[C@](C)(O)C[C@@H](C)CN[C@H](C)[C@@H](O)[C@](C)(O)[C@@H](CC)OC(=O)[C@@H]2C)C[C@@]1(C)OC` [Example H-46, 1-((2S,3R,4S,6R)-2-(((2R,3S,4R,5R,8R,10R,11R,12S,13S,14R)-2-ethyl-3,4,10-trihydroxy-13-(((2R,4R,5S,6S)-5-hydroxy-4-methoxy-4,6-dimethyl-5-((propylamino)methyl)tetrahydro-2H-pyran-2-yl)oxy)-3,5,8,10,12,14-hexamethyl-15-oxo-1-oxa-6-azacyclopentadecan-11-yl)oxy)-3-hydroxy-6-methyltetrahydro-2H-pyran-4-yl)-1,3-dimethyl-3-(pyrazin-2-yl)urea], the IC50 in assay [1] (Bos taurus) was more than 250 µM. The “IL-1β OS of LPS” value in assay [2] was determined as 100 µM.
Consider `CC[C@H]1OC(=O)[C@H](C)[C@@H](O[C@H]2C[C@@](C)(OC)[C@](O)(CN3CCc4ccccc4C3)[C@H](C)O2)[C@H](C)[C@@H](O[C@@H]2O[C@H](C)C[C@H](N(C)C(=O)N(C)c3ccccc3)[C@H]2O)[C@](C)(O)C[C@@H](C)CN[C@H](C)[C@@H](O)[C@]1(C)O` [Example J-25, 1-((2S,3R,4S,6R)-2-(((2R,3S,4R,5R,8R,10R,11R,12S,13S,14R)-13-(((2R,4R,5S,6S)-5-((3,4-dihydroisoquinolin-2(1H)-yl)methyl)-5-hydroxy-4-methoxy-4,6-dimethyltetrahydro-2H-pyran-2-yl)oxy)-2-ethyl-3,4,10-trihydroxy-3,5,8,10,12,14-hexamethyl-15-oxo-1-oxa-6-azacyclopentadecan-11-yl)oxy)-3-hydroxy-6-methyltetrahydro-2H-pyran-4-yl)-1,3-dimethyl-3-phenylurea], for which the IC50 in assay [1] (Bos taurus) is 6 µM. The “IL-1β OS of LPS” value in assay [2] was found to be 16 µM. For the same molecule, the MIC in assay [3] (read-out: MIC ≤64 μg/mL for at least one of the bacterial strains (flag * at Ex #)) was less than 64 µg/mL.
On to `CCCNC[C@]1(O)[C@H](C)O[C@@H](O[C@H]2[C@H](C)[C@@H](O[C@@H]3O[C@H](C)C[C@H](N(C)C(=O)Nc4ccc(C#N)cc4)[C@H]3O)[C@](C)(O)C[C@@H](C)CN[C@H](C)[C@@H](O)[C@](C)(O)[C@@H](CC)OC(=O)[C@@H]2C)C[C@@]1(C)OC` [Example H-77, 3-(4-cyanophenyl)-1-((2S,3R,4S,6R)-2-(((2R,3S,4R,5R,8R,10R,11R,12S,13S,14R)-2-ethyl-3,4,10-trihydroxy-13-(((2R,4R,5S,6S)-5-hydroxy-4-methoxy-4,6-dimethyl-5-((propylamino)methyl)tetrahydro-2H-pyran-2-yl)oxy)-3,5,8,10,12,14-hexamethyl-15-oxo-1-oxa-6-azacyclopentadecan-11-yl)oxy)-3-hydroxy-6-methyltetrahydro-2H-pyran-4-yl)-1-methylurea], for which, in assay [1] (Bos taurus), the IC50 was determined as 30 µM. Moreover, the “IL-1β OS of LPS” value in assay [2] came out at 200 µM. The MIC in assay [3] (setting [4]) was more than 64 µg/mL.
For `CCCNC[C@]1(O)[C@H](C)O[C@@H](O[C@H]2[C@H](C)[C@@H](O[C@@H]3O[C@H](C)C[C@H](N(C)C(=O)N(C)Cc4ccccc4)[C@H]3O)[C@](C)(O)C[C@@H](C)CN[C@H](C)[C@@H](O)[C@](C)(O)[C@@H](CC)OC(=O)[C@@H]2C)C[C@@]1(C)OC` [Example H-40, 1-benzyl-3-((2S,3R,4S,6R)-2-(((2R,3S,4R,5R,8R,10R,11R,12S,13S,14R)-2-ethyl-3,4,10-trihydroxy-13-(((2R,4R,5S,6S)-5-hydroxy-4-methoxy-4,6-dimethyl-5-((propylamino)methyl)tetrahydro-2H-pyran-2-yl)oxy)-3,5,8,10,12,14-hexamethyl-15-oxo-1-oxa-6-azacyclopentadecan-11-yl)oxy)-3-hydroxy-6-methyltetrahydro-2H-pyran-4-yl)-1,3-dimethylurea] the same measures were 45 µM, 40 µM and more than 64 µg/mL.
With `CCCNC[C@]1(O)[C@H](C)O[C@@H](O[C@H]2[C@H](C)[C@@H](O[C@@H]3O[C@H](C)C[C@H](N(C)C(=O)N4CCc5ccccc54)[C@H]3O)[C@](C)(O)C[C@@H](C)CN[C@H](C)[C@@H](O)[C@](C)(O)[C@@H](CC)OC(=O)[C@@H]2C)C[C@@]1(C)OC` [Example I-3, N-((2S,3R,4S,6R)-2-(((2R,3S,4R,5R,8R,10R,11R,12S,13S,14R)-2-ethyl-3,4,10-trihydroxy-13-(((2R,4R,5S,6S)-5-hydroxy-4-methoxy-4,6-dimethyl-5-((propylamino)methyl)tetrahydro-2H-pyran-2-yl)oxy)-3,5,8,10,12,14-hexamethyl-15-oxo-1-oxa-6-azacyclopentadecan-11-yl)oxy)-3-hydroxy-6-methyltetrahydro-2H-pyran-4-yl)-N-methylindoline-1-carboxamide], the IC50 in assay [1] (Bos taurus) stood at 40 µM. Besides, the “IL-1β OS of LPS” value in assay [2] is 32 µM.
For `CC[C@H]1OC(=O)[C@H](C)[C@@H](O[C@H]2C[C@@](C)(OC)[C@](C)(O)[C@H](C)O2)[C@H](C)[C@@H](O[C@@H]2O[C@H](C)C[C@H](N(C)C(=O)N(C)c3ccccc3)[C@H]2O)[C@](C)(O)C[C@@H](C)CN[C@H](C)[C@@H](O)[C@]1(C)O` [Example B-1a, 1-((2S,3R,4S,6R)-2-(((2R,3S,4R,5R,8R,10R,11R,12S,13S,4R)-2-ethyl-3,4,10-trihydroxy-13-(((2R,4R,5R,6S)-5-hydroxy-4-methoxy-4,5,6-trimethyltetrahydro-2H-pyran-2-yl)oxy)-3,5,8,10,12,14-hexamethyl-11S-oxo-1-oxa-6-azacyclopentadecan-11-yl)oxy)-3-hydroxy-6-methyltetrahydro-2H-pyran-4-yl)-1,3-dimethyl-3-phenylurea], the IC50 in assay [1] was determined as 32 µM. The “IL-1β OS of LPS” value in assay [2] was 40 µM.
